Reference: patent US20260048045A1, “PI3K-ALPHA INHIBITORS FOR THE TREATMENT OF CANCER” (Scorpion Therapeutics, Inc., priority 2022, published 2026)

Legend:
[1] = target: T1, PI3Kα H1047R (full-length p110-α H1047R complexed with truncated p85-α, residues 322-694) + wortmannin (Homo sapiens, UniProt P42336, H1047R); experiment: Surface Plasmon Resonance (SPR) binding, Biacore 8K, ATP site blocked with wortmannin; conditions: multi-cycle kinetics, 25° C., protein pre-incubated with 1 μM wortmannin
T1 construct: The protein contained a full-length p110-α subunit harboring the H1047R mutation with an N-terminal AviTag
Experimental: SPR experiments were performed on a Biacore 8K instrument. A biotinylated recombinant PI3Kα H1047R protein was used in this study. The protein contained a full-length p110-α subunit harboring the H1047R mutation with an N-terminal AviTag, complexed with a truncated p85-α subunit (amino acid residues 322-694). The protein was first incubated with 1 μM wortmannin for 30 min at RT to covalently block the ATP binding site, then immobilized onto a streptavidin sensor chip by flowing the protein through the sensor chip at typically 20 μg/mL concentration and 2 μL/min flow rate for 1200 seconds. Compound binding affinities were measured in the multi-cycle kinetics mode, at 90 μL/min flow rate with 90 seconds association time and 240 seconds dissociation time. The running buffer contained 50 mM Tris, pH 7.5, 150 mMNaCl, 0.01% Brij35, 1 mM DTT, 1 mM MgCl2, 0.05% Tween-20 and 2% DMSO. Temperature was maintained at 25° C. during experiments. SPR can also be utilized to study competition between Compounds A and B, i.e., by measuring the binding of Compound A in the presence and absence of Compound B, and by measuring the binding of Compound B in the presence and absence of Compound A.

[2] = tested on: pAKT (S473) in T47D.1 cells, PI3Kα H1047R mutation present; experiment: HTRF pAKT-T47D cell assay; type: cell-based; conditions: RPMI+10% FBS+0.2 units/mL bovine insulin
Experimental: Compounds A and B were assayed using homogeneous time-resolved fluorescence (HTRF).
Gibco RPMI 1640 Medium, no phenol red; Gibco RPMI 1640 Medium; Gibco Trypsin-EDTA (0.5%), no phenol red; Gibco DPBS; Trypan blue solution 0.4% (Corning); Avantor Seradigm Premium Grade Fetal Bovine Serum (FBS); Greiner 784080-384 well TC treated white plates; pAKT (Ser473) HTRF; Gibco Insulin, human recombinant, zinc solution; Gibco Recovery Cell Culture Freezing Medium; Countess II FL Automated Cell Counter (ThermoFisher); Countess II Slides (ThermoFisher); Microscope; and PHERAstar FSX Microplate Reader (BMG LABTECH, Inc.).
The cell line ID was T47D.1, the HTRF detection was pAKT (S473), a PI3Kα H1047R mutation was present, the seeding density was 5000, the timepoint was 1 hour, and the medium used was RPMI+10% FBS (no phenol red)+0.2 units/mL bovine insulin.
• The cell density was not permitted to reach 100% confluence. The cells were split 1.5 when they reached ˜80% confluence. • Cells were split twice a week (Mon and Fri). • Cells over passage 18 were not used (˜2 months of maintenance). • Antibiotics were not used for tissue culture maintenance or assays.
The procedure was as follows: • 1. Prepared ARP: • a. Stamped 12.5 nL from 10 mM source plate to destination plate using Echo. Sealed plate immediately and froze at −20° C. if it was not used on the same day. • b. If a frozen ARP was used, the plate was thawed and spun at 1000 rpm×1 min. • 2. Preparation of cells (adherent): • a. Aspirated media from cells. Washed cells with sterile 1×PBS. Aspirated PBS and added appropriate amount of Trypsin. • b. Once cells were fully trypsinized, added appropriate media to resuspend cells. Transferred cells to a 15 mL or 50 mL conical tube. • c. Counted cells on the Countess II Cell Counter. • 3. Plating of cells: • a. […] Calculated the amount of HTRF antibody master mix needed to perform the desired experiments plus any extra dead volume required for dispensing (4 mL required per well). […]
• 6. Measured on the PHERAstar/Envision using the HTRF protocol. When plates were read, all wells were read.

T1 sequence (P42336 whole entry H1047R, the tested form may be a part): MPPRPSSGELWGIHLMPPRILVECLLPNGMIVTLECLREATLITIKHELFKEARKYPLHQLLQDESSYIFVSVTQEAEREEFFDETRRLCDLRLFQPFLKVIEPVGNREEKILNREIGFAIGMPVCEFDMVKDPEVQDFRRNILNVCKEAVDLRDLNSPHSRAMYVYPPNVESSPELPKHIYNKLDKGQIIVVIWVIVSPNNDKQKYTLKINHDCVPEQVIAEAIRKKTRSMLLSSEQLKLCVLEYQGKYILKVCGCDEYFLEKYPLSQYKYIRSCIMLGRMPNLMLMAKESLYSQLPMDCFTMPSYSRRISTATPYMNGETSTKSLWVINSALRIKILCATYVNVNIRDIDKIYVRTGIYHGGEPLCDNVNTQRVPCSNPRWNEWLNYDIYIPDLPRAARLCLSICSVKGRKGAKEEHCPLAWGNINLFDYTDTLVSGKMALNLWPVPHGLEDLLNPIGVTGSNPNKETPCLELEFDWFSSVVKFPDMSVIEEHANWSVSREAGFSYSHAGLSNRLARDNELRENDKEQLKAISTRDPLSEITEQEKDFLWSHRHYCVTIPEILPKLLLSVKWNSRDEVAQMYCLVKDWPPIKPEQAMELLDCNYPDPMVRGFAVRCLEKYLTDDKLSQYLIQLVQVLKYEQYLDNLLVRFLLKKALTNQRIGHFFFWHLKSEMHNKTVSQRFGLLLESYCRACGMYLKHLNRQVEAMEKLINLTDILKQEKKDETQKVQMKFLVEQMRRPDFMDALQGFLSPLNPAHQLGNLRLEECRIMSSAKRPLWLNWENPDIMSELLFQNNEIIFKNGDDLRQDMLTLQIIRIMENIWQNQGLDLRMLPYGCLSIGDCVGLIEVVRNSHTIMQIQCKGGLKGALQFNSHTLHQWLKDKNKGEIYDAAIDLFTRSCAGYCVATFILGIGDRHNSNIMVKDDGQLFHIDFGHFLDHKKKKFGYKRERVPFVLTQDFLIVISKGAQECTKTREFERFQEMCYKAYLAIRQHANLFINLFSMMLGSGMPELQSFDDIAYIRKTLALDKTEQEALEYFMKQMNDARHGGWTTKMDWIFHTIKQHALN
T1 sequence (P27986 322-694 partner limits assumed): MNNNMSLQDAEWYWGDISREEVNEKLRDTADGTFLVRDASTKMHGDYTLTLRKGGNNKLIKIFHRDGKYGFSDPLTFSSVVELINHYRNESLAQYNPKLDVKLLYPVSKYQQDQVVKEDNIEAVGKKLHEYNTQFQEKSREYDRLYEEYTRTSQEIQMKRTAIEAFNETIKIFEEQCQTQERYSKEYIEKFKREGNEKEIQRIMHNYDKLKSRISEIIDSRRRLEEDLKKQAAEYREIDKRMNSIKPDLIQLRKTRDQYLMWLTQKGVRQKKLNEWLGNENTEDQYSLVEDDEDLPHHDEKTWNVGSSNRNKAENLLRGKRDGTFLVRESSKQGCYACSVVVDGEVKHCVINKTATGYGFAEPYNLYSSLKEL

Kd [1] [nM]	IC50 ([2]; Homo sapiens, T47D, 1 h) [nM]	IC50 ([2]; 1 hour) [nM]	Structure (SMILES)
8.6	213	–	Cc1c([C@@H](Nc2nc3ccc(C(N)=O)cc3[nH]2)C(C)C)oc2ccc(F)cc12 [Compound B, (S)-2-((1-(5-fluoro-3-methylbenzofuran-2-yl)-2-methylpropyl)amino)-1H-benzo[d]imidazole-6-carboxamide]
38.4	455	598	Cc1c([C@@H](NC(=O)Nc2cncc(C(=O)N(C)C)c2)C(C)C)oc2ccc(F)cc12 [Compound A, (S)-5-(3-(1-(5-fluoro-3-methylbenzofuran-2-yl)-2-methylpropyl)ureido)-N,N-dimethylnicotinamide]
